Assay results published in PubChem BioAssay (NCI).
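Results reflect a 48-hour exposure of cells in 96-well plates to compound at five concentrations. Definition used: TGI = concentration required for complete inhibition of growth.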

How the values were obtained:
Test in all cases: growth of human tumour cells (NCI), 48 h
OVCAR-5 ovarian = tested on: OVCAR-5 ovarian
TK-10 renal = tested on: TK-10 renal
NCI/ADR-RES ovarian = tested on: NCI/ADR-RES ovarian
CAKI-1 renal = tested on: CAKI-1 renal
SK-MEL-2 melanoma = tested on: SK-MEL-2 melanoma
SNB-75 CNS = tested on: SNB-75 CNS
OVCAR-3 ovarian = tested on: OVCAR-3 ovarian
HCT-116 colon = tested on: HCT-116 colon
SN12C renal = tested on: SN12C renal
OVCAR-4 ovarian = tested on: OVCAR-4 ovarian
NCI-H23 lung = tested on: NCI-H23 lung
COLO 205 colon = tested on: COLO 205 colon
SF-268 CNS = tested on: SF-268 CNS
A498 renal = tested on: A498 renal
HCT-15 colon = tested on: HCT-15 colon
HOP-92 NSCLC = tested on: HOP-92 NSCLC
OVCAR-8 ovarian = tested on: OVCAR-8 ovarian
IGROV1 ovarian = tested on: IGROV1 ovarian
U251 CNS = tested on: U251 CNS
BT-549 breast = tested on: BT-549 breast
NCI-H522 lung = tested on: NCI-H522 lung
CCRF-CEM leukemia = tested on: CCRF-CEM leukemia
EKVX NSCLC = tested on: EKVX NSCLC
KM12 colon = tested on: KM12 colon
UO-31 renal = tested on: UO-31 renal
MDA-MB-231 breast = tested on: MDA-MB-231 breast
UACC-257 melanoma = tested on: UACC-257 melanoma
UACC-62 melanoma = tested on: UACC-62 melanoma
LOX IMVI melanoma = tested on: LOX IMVI melanoma
MDA-N = tested on: MDA-N
SW-620 colon = tested on: SW-620 colon
HS 578T breast = tested on: HS 578T breast
786-0 renal = tested on: 786-0 renal
HL-60(TB) leukemia = tested on: HL-60(TB) leukemia
RPMI-8226 leukemia = tested on: RPMI-8226 leukemia
SF-295 CNS = tested on: SF-295 CNS
PC-3 prostate = tested on: PC-3 prostate
DU-145 prostate = tested on: DU-145 prostate
T-47D breast = tested on: T-47D breast
M14 melanoma = tested on: M14 melanoma
HT29 colon = tested on: HT29 colon
NCI-H226 lung = tested on: NCI-H226 lung
SF-539 CNS = tested on: SF-539 CNS
SK-OV-3 ovarian = tested on: SK-OV-3 ovarian
MALME-3M melanoma = tested on: MALME-3M melanoma
A549 NSCLC = tested on: A549 NSCLC
MCF7 breast = tested on: MCF7 breast
MOLT-4 leukemia = tested on: MOLT-4 leukemia
SR leukemia = tested on: SR leukemia
HOP-62 NSCLC = tested on: HOP-62 NSCLC
MDA-MB-435 = tested on: MDA-MB-435
SK-MEL-5 melanoma = tested on: SK-MEL-5 melanoma
SK-MEL-28 melanoma = tested on: SK-MEL-28 melanoma
SNB-19 CNS = tested on: SNB-19 CNS
NCI-H460 lung = tested on: NCI-H460 lung
K-562 leukemia = tested on: K-562 leukemia
HCC-2998 colon = tested on: HCC-2998 colon
ACHN renal = tested on: ACHN renal

O=C1c2ccccc2-c2c1c1ccccc1c(=O)n2Cc1ccccc1 showed a TGI (OVCAR-5 ovarian) of over 100 µM, a TGI (TK-10 renal) of over 100 µM and a TGI (NCI/ADR-RES ovarian) of over 100 µM. It also gave a TGI (CAKI-1 renal) of over 100 µM, a TGI (SK-MEL-2 melanoma) of over 100 µM and a TGI (SNB-75 CNS) of over 100 µM. For the same molecule, the TGI (OVCAR-3 ovarian) was over 100 µM, the TGI (HCT-116 colon) was over 100 µM and the TGI (SN12C renal) was over 100 µM. It also gave a TGI (OVCAR-4 ovarian) of 42.3 µM, a TGI (NCI-H23 lung) of over 100 µM and a TGI (COLO 205 colon) of over 100 µM. The TGI (SF-268 CNS) was over 100 µM, the TGI (A498 renal) was over 100 µM and the TGI (HCT-15 colon) was over 100 µM. The TGI (HOP-92 NSCLC) was over 100 µM, the TGI (OVCAR-8 ovarian) was over 100 µM and the TGI (IGROV1 ovarian) was over 100 µM. It also gave a TGI (U251 CNS) of over 100 µM, a TGI (BT-549 breast) of over 100 µM and a TGI (NCI-H522 lung) of over 100 µM. The TGI (CCRF-CEM leukemia) was over 100 µM, the TGI (EKVX NSCLC) was over 100 µM and the TGI (KM12 colon) was over 100 µM. It also gave a TGI (UO-31 renal) of over 100 µM, a TGI (MDA-MB-231 breast) of over 100 µM and a TGI (UACC-257 melanoma) of over 100 µM. The TGI (UACC-62 melanoma) was over 100 µM, the TGI (LOX IMVI melanoma) was over 100 µM and the TGI (MDA-N) was over 100 µM. It also gave a TGI (SW-620 colon) of over 100 µM, a TGI (HS 578T breast) of over 100 µM and a TGI (786-0 renal) of over 100 µM. The TGI (HL-60(TB) leukemia) was over 100 µM, the TGI (RPMI-8226 leukemia) was over 100 µM and the TGI (SF-295 CNS) was over 100 µM. For the same molecule, the TGI (PC-3 prostate) was over 100 µM, the TGI (DU-145 prostate) was over 100 µM and the TGI (T-47D breast) was over 100 µM. It also gave a TGI (M14 melanoma) of over 100 µM, a TGI (HT29 colon) of over 100 µM and a TGI (NCI-H226 lung) of over 100 µM. The TGI (SF-539 CNS) was over 100 µM, the TGI (SK-OV-3 ovarian) was over 100 µM and the TGI (MALME-3M melanoma) was over 100 µM. It also gave a TGI (A549 NSCLC) of over 100 µM, a TGI (MCF7 breast) of over 100 µM and a TGI (MOLT-4 leukemia) of over 100 µM. It also gave a TGI (SR leukemia) of over 100 µM, a TGI (HOP-62 NSCLC) of over 100 µM and a TGI (MDA-MB-435) of over 100 µM. It also gave a TGI (SK-MEL-5 melanoma) of over 100 µM and a TGI (SK-MEL-28 melanoma) of over 100 µM.

In the case of CN(C)CCNC(=O)c1cccc(C(=O)Nc2ccccc2)c1[N+](=O)[O-], the TGI (SNB-19 CNS) is reported as over 100 µM, the TGI (OVCAR-5 ovarian) is reported as over 100 µM and the TGI (TK-10 renal) is reported as over 100 µM. It also gave a TGI (NCI/ADR-RES ovarian) of over 100 µM, a TGI (CAKI-1 renal) of over 100 µM and a TGI (SK-MEL-2 melanoma) of over 100 µM. It also gave a TGI (NCI-H460 lung) of over 100 µM, a TGI (SNB-75 CNS) of over 100 µM and a TGI (OVCAR-3 ovarian) of over 100 µM. It also gave a TGI (K-562 leukemia) of over 100 µM, a TGI (HCT-116 colon) of over 100 µM and a TGI (HCC-2998 colon) of over 100 µM. The TGI (SN12C renal) was over 100 µM, the TGI (NCI-H23 lung) was over 100 µM and the TGI (COLO 205 colon) was over 100 µM. For the same molecule, the TGI (SF-268 CNS) was over 100 µM, the TGI (A498 renal) was over 100 µM and the TGI (HCT-15 colon) was over 100 µM. The TGI (OVCAR-8 ovarian) was over 100 µM, the TGI (IGROV1 ovarian) was over 100 µM and the TGI (U251 CNS) was over 100 µM. For the same molecule, the TGI (BT-549 breast) was over 100 µM, the TGI (NCI-H522 lung) was over 100 µM and the TGI (CCRF-CEM leukemia) was over 100 µM. The TGI (KM12 colon) was over 100 µM, the TGI (UO-31 renal) was over 100 µM and the TGI (MDA-MB-231 breast) was over 100 µM. It also gave a TGI (UACC-257 melanoma) of over 100 µM, a TGI (UACC-62 melanoma) of over 100 µM and a TGI (MDA-N) of over 100 µM. For the same molecule, the TGI (SW-620 colon) was over 100 µM, the TGI (HS 578T breast) was over 100 µM and the TGI (786-0 renal) was over 100 µM. For the same molecule, the TGI (ACHN renal) was over 100 µM, the TGI (HL-60(TB) leukemia) was over 100 µM and the TGI (SF-295 CNS) was over 100 µM. The TGI (PC-3 prostate) was over 100 µM, the TGI (DU-145 prostate) was over 100 µM and the TGI (T-47D breast) was over 100 µM. The TGI (M14 melanoma) was over 100 µM, the TGI (HT29 colon) was over 100 µM and the TGI (NCI-H226 lung) was over 100 µM. It also gave a TGI (SF-539 CNS) of over 100 µM, a TGI (SK-OV-3 ovarian) of over 100 µM and a TGI (MALME-3M melanoma) of over 100 µM. It also gave a TGI (A549 NSCLC) of over 100 µM, a TGI (MCF7 breast) of over 100 µM and a TGI (MOLT-4 leukemia) of over 100 µM. The TGI (SR leukemia) was over 100 µM, the TGI (HOP-62 NSCLC) was over 100 µM and the TGI (MDA-MB-435) was over 100 µM. The TGI (SK-MEL-5 melanoma) was over 100 µM and the TGI (SK-MEL-28 melanoma) was over 100 µM.
